Converted amounts (≈) assume the structure as drawn.
Assays:
[1] = test system: SF-295 (glioblastoma); assay: Hollow Fiber Assay (HFA), SF-295 fibers s.c. in mice; type: in vivo, BALB/c nude mice; details: 25 mg/kg/day intraperitoneally, 4 days
Description: (§1) Cell culture of SF-295 (glioblastoma) and HCT-116 (colon carcinoma) was performed in RPMI 1640 medium supplemented with 10% fetal bovine serum, 2 mM glutamine, at 37°C with 5% CO2.
(§2) Polyvinylidene fluoride (PVDF) HFs with a 1-mm internal diameter and a molecular weight cutoff point of 500 kDa were used (Spectrum Laboratories, Houston, TX). The fibers were cut into pieces 12–15 cm long, washed 2× with sterile distilled water and kept in sterile conditions.
(§3) Before use, under sterile conditions, the fibers were incubated in complete RPMI with 20% fetal bovine serum (FBS) overnight (packaging time). Cell viability was assessed by trypan blue exclusion assay. Then, a cell suspension of 7.0×10^6 cell/mL at 4°C was injected into the fiber, with the ends thereof immediately heat-sealed. The fibers were cut into 2 cm each, transferred to petri plates and incubated in complete RPMI medium for 24 h prior to implantation in mice. Each cell was injected into one fiber of a different color (HCT-116, yellow fibers; SF-295, blue fibers).
(§4) Each animal received 2 fibers at s.c. site. All incisions were sealed with a surgical stapler.
(§5) Tumor cell proliferation was quantified through the ability of living cells to reduce the yellow dye 3-(4,5-dimethyl-2-thiazolyl)-2,5-diphenyl-2H-tetrazolium bromide (MTT, Sigma Aldrich) to a purple formazan product. For this purpose, the fibers removed from animals were incubated with MTT 1 mg/mL in 6-well plates during 4 h at 37°C, 5% CO2 and 95% humidity. The MTT solution was aspirated; fibers were washed with saline solution containing protamine sulphate 2.5% and incubated in protamine solution overnight at 4°C. Fibers were transferred to 24 well plates, cut into 2 or 3 pieces and put to dry. The formazan was dissolved in […] of DMSO, aliquots (150 uL) were transferred to 96 well plates and absorbance was measured at 595 nm (DTX-880, Beckman Coulter).

[2] = test system: HCT-116 (colon carcinoma); assay: Hollow Fiber Assay (HFA), HCT-116 fibers s.c. in mice; type: in vivo, BALB/c nude mice; details: 25 mg/kg/day intraperitoneally, 4 days
Description: as §1, §2, §3, §4, §5

[3] = test system: BALB/c nude mice; details: intraperitoneally for 4 consecutive days, HFA
Description: During the HFA, tumor cells (i.e., SF-295 and HCT-116) were cultivated within biocompatible, semipermeable polyvinylidene fluoride hollow fibers (HFs) and subcutaneously (s.c.) implanted within the dorsal portion of BALB/c nude mice. LASSBio-1586 (5b) and 5-Fluorouracil (5-FU), which was the positive control, were administered intraperitoneally for 4 consecutive days. On day 5, the fibers were removed to quantify the antiproliferative activity of 5b and 5-FU.
A total of 26 female BALB/c nude (nu/nu) mice aging 6–8 weeks were obtained from the animal facilities of State University of São Paulo (USP), Faculty of Medicine, São Paulo (SP), Brazil. They were kept in well-ventilated and sterile cages (Alesco, São Paulo) under standard conditions of light (12 h with alternative day and night cycles) and temperature (22±1°C) and were housed with access to commercial sterile rodent stock diet (Nutrilabor, São Paulo, Brazil) and water ad libitum. As previously mentioned procedures are in accordance with guidelines for the welfare of animals in experimental neoplasia and with national and international standard on the care and use of experimental laboratory animals and were approved by the local Ethical Committee on Animal Research (Process No. 102/2007).
Mice were anaesthetized with ketamine (90 mg/kg) - xylazine (4.5 mg/kg) (Sigma Aldrich). Groups were divided into: a) Negative control (DMSO 5%, n = 6); b) Positive control (5-Flouoruracil, 5-FU, 25 mg/kg/day, n = 7) (Sigma Aldrich); c) LASSBio-1586 (5b; 25 mg/kg/day, n = 7); d) LASSBio-1586 (5b; 50 mg/kg/day, n = 6). A small incision in the neck was incised to permit subcutaneous (s.c.) implantation of the fibers in the dorsal part of the animal. Each animal received 2 fibers at s.c. site. All incisions were sealed with a surgical stapler. The test compounds were administered intraperitoneally during 4 consecutive days. On day 5, fibers were removed to quantify the antiproliferative capacity as described above.

[4] = test system: NCI-H358M (pulmonary bronchio-alveolar carcinoma); assay: In vitro antiproliferative MTT assay, NCI-H358M; type: cell-based
[5] = test system: human lymphocytes; assay: In vitro antiproliferative assay, human lymphocytes; type: cell-based; details: Lymphocyte, Table 2
Description: (§6) The antiproliferative activity of compounds 5a–r was determined based on an MTT assay and using CA-4 as standard against the tumor cell lines: HL-60 (human leukemia), SF-295 (human glioblastoma), MDA-MB435 (melanoma), PC3M (prostate cancer), OVCAR-8 (ovaries adenocarcinoma), NCI-H258M (pulmonary bronchio-alveolar carcinoma) and HCT-8 (adenocarcinoma ileocecal) (Table 2). To determine the selectivity index of compounds 5a–r, their antiproliferative profile was also evaluated toward human lymphocytes (Table 2).
To investigate the selective cytotoxic activity of the N-acylhydrazones derivatives (5a–r), their antiproliferative potency was also assessed toward human lymphocytes and the results were compared to the data from CA-4 ([…]). The selectivity index (SI), which was the IC50 for human lymphocytes/IC50 for cancer cell lines after treatment with CA-4 and N-acylhydrazones (5a–r), was calculated, as depicted in Table 3. […] The best comparative selectivity indices (CA-4 vs 5b) were obtained from the SF-295 (SI = 13), MDA-MB435 (SI = 42) and NCI-H258M (SI = 9.5) tumor cell lines, and the worst results were found for OVCAR-8 (SI = 0.5).

[6] = test system: PC3M (prostate cancer); assay: In vitro antiproliferative MTT assay, PC3M; type: cell-based
Description: as §6
(§7) Compounds (0.009–5 µg/mL) were tested for cytotoxic activity against selected cancer cell lines: SF-295 (glioblastoma), HCT-8 (colon), MDAMB-435 (melanoma), HL60 (leukemia), PC3M (prostate cancer), OVCAR-8 (ovaries adenocarcinoma) and NCI-H258M (pulmonary bronchio-alveolar carcinoma). All cell lines were kindly obtained from the National Cancer Institute (Bethesda, MD, USA).Tumor cell proliferation was quantified through the ability of living cells to reduce the yellow dye 3-(4,5-dimethyl-2-thiazolyl)-2,5-diphenyl-2H-tetrazolium bromide (MTT, Sigma Aldrich)) to a purple formazan product and absorbance was measured at 595 nm (DTX-880, Beckman Coulter).

[7] = test system: OVCAR-8 (ovaries adenocarcinoma); assay: In vitro antiproliferative MTT assay, OVCAR-8; type: cell-based
Description: as §6, §7

[8] = test system: HCT-8 (adenocarcinoma ileocecal); assay: In vitro antiproliferative MTT assay, HCT-8; type: cell-based
Description: as §6, §7

[9] = test system: HL-60 (human leukemia); assay: In vitro antiproliferative MTT assay, HL-60; type: cell-based
Description: as §6, §7

[10] = test system: MDA-MB435 (melanoma); assay: In vitro antiproliferative MTT assay, MDA-MB435; type: cell-based; details: IC50 for human lymphocytes/IC50 for cancer cell line
Description: as §6, §7

[11] = test system: MDA-MB435 (melanoma); assay: In vitro antiproliferative MTT assay, MDA-MB435; type: cell-based; details: Homo sapiens, MDA-MB-435; Table 2; MTT
[12] = test system: SF-295 (human glioblastoma); assay: In vitro antiproliferative MTT assay, SF-295; type: cell-based
Description: as §6, §7

[13] = Aqueous solubility assay by ultraviolet spectroscopy; type: physicochemical; details: water (saturated aqueous solution), thermodynamic from solid, 2 hours at 37°C, read-out: Aq. Solubility
Description: Ultraviolet spectroscopy was performed using Femto spectrophotometer. The wavelength used in solubility assay was determined by the -λ max characteristic of each compound. Spectra were analyzed in Femtoscan software. Mass spectrometry was obtained by positive ionization at Bruker AmaZon SL and data analyzed in Compass 1.3.SR2 software.
The solubility assay was performed considering the absorptivity of compounds in ultraviolet spectroscopy as described by Schneider and coworkers. The assay wavelength was determined by the λ max characteristic of each compound.
Saturated aqueous solutions were prepared (0.01 mg/mL) and were kept under stirring for 2 hours at 37°C. The supernatant was filtered in 0,45 µm filters and transferred to a quartz cuvette (10 mm) to spectra acquisition.
Solubility was determined by linear regression using as graph plots, solutions prepared by dilutions of the original solution in methanol. The data were obtained in triplicates and the mean values were used to the graph plots. The correlation coefficient (R^2) values were between 0.9972 and 0.9999.

[14] = test system: tumor cell lines; assay: In vitro antiproliferative MTT assay, tumor cell lines (summary over the panel); type: cell-based; details: summary in text over the cell lines of Table 2; read-out: IC50 (antiproliferative potency over the tumor cell lines)
Description: as §6, §7

[15] = IC50 for human lymphocytes/IC50 for cancer cell line

O=c1[nH]cc(F)c(=O)[nH]1 [Compound 5-FU, 5-Fluorouracil, reference compound]
Inhibition (%) SF-295 [1]: 65.40% | Proliferation (OD595 nm) SF-295 ([1]; mean ± S.E.M.): 0.52±0.08 OD595 nm | Inhibition (%) HCT-116 [2]: 62.08% | Proliferation (OD595 nm) HCT-116 ([2]; mean ± S.E.M.): 0.59±0.10 OD595 nm | deaths of mice during treatment [3]: no deaths occurred

COc1cc(C(=O)N/N=C/c2ccc(-c3ccccc3)cc2)cc(OC)c1OC [Compound 5n, (E)-N′-(biphenyl-4-ylmethylene)-3,4,5-trimethoxyibenzohydrazide]
melting point: 187 to 188 °C | SI Lymphocyte/ NCI-H358M [4, 15]: 1 | IC50 ([4]; NCI-H358M, Table 2, MTT): > 25 µM | IC50 [5]: > 64.1 µM | IC50 ([6]; Homo sapiens, PC-3M, Table 2, MTT): > 25 µM | SI Lymphocyte/ PC3M [6, 15]: 1 | IC50 ([7]; Homo sapiens, OVCAR-8, Table 2, MTT): > 25 µM | SI Lymphocyte/ OVCAR-8 [7, 15]: 1 | IC50 ([8]; Homo sapiens, HCT-8, Table 2, MTT): > 25 µM | SI Lymphocyte/ HCT-8 [8, 15]: 1.0 | IC50 ([9]; Homo sapiens, HL-60, Table 2, MTT): > 25 µM | SI Lymphocyte/ HL-60 [9, 15]: 1.0 | SI Lymphocyte/ MDA-MB345 [10]: 1.0 | IC50 [11]: > 25 µM | IC50 ([12]; Homo sapiens, SF-295, Table 2, MTT, read-out: IC50 SF295): > 25 µM | SI Lymphocyte/ SF-295 [12, 15]: 1.0 | solubility at 2 h [13]: 0.0606 µg/mL (≈ 0.155 µM) | IC50 [14]: > 25 µM
